Type in all cases: cell-based, human
Test [1] relates to TLR4-mediated signaling in FHC enterocytes. The test is described as follows: Western blot of TLR4-mediated signaling in LPS-treated enterocytes. A general note: In western blotting, separated proteins are transferred to a membrane and probed.
The test system is the same in test [2]. Nature of the test: qRT-PCR of IL-6 and COX-2 mRNA in LPS-treated enterocytes. In general terms: Real-time PCR tracks product formation cycle by cycle.
The test system of test [3] is p65 subunit of NF-κB in FHC cells. The test is described as follows: Immunofluorescence staining of NF-κB p65 nuclear translocation. To be noted: Ys49 2 and 5 μM with peptide 40 μM for 1 h, then LPS. The procedure: FHC cells were fixed, washed and blocked, and then incubated with the following primary antibodies: anti-NF-κB p65 (Cell Signaling Technology, USA) and […]. The Alexa Fluor® 488-labeled goat anti-rabbit secondary antibody was used (Cell Signaling Technology, USA). FHC cells were counterstained with DAPI (Sigma-Aldrich, USA) and visualized using a fluorescence microscope (Zeiss, Germany).

The test system of another test is FHC cells. Nature of the test: In vitro enterocyte migration (scratch wound). To be noted: Ys49 2 and 5 μM with peptide 40 μM for 1 h, then LPS. The procedure:
Cells were expected to reach a 100% confluence on the day of the experiment. Monolayers were scratched by a sterile pipette tip and washed for three times with pre-warmed 1 × PBS. The wounded monolayer of FHC or IEC-6 cells was imaged at indicated time using a microscope (Zeiss, Germany). The relative migration index of the cells was measured according to the area of the wound edge by Image J software (NIH Image, USA).

Test [4] relates to PI3K/AKT pathway in FHC enterocytes. The test is described as follows: Western blot of PI3K and AKT phosphorylation. To be noted: Ys49 2 and 5 μM with ^Tat(48–60) YVEEL 40 μM for 1 h, then LPS. Here is the method: Cell pellets or intestinal tissues were lysed with RIPA buffer (Beyotime, China) for 20 min on ice and lysates were collected by centrifugation (13000 × g, 20 min at 4°C). Protein concentrations were quantified using the BCA Protein Assay (Thermo Fisher Scientific, USA) and equal amounts (20 μg) of protein lysates from each sample were separated by SDS-PAGE. Separated proteins were then transferred to PVDF membranes (Millipore, USA). Membranes were blocked with 5% skim milk or BSA and then incubated with the following primary antibodies: anti-TLR4 (Abcam, USA), anti-p-IκBα (Abcam, USA), anti-IκBα (Abcam, USA), anti-p-PI3K (Cell Signaling Technology, USA), anti-p-AKT (Cell Signaling Technology, USA), anti-PI3K (Cell Signaling Technology, USA), anti-AKT (Cell Signaling Technology, USA), anti-β-actin (Abcam, USA). Membranes were then incubated with species-matched HRP-conjugated secondary antibodies (Biosharp, China). Protein expressions were visualized using Immobilon® Western Chemiluminescent HRP Substrate (Millipore, USA) in accordance with the manufacturer’s protocol.

Setting [5] is: LY294002 10 μM in the absence or presence of ^Tat(48–60) YVEEL 40 μM, LPS.
The mark [6] stands for this setting: Ys49 2 and 5 μM with ^Tat(48–60) YVEEL 40 μM for 1 h, then LPS.

Regarding `O=c1cc(N2CCOCC2)oc2c(-c3ccccc3)cccc12` [LY294002], in test [1] (LY294002 10 μM plus ^Tat(48–60) YVEEL 40 μM, LPS), the “TLR4 protein expression, inhibition in the presence of ^Tat(48–60) YVEEL” value is reported as “more significant”. Also, the TLR4 protein expression result in test [1] (LY294002 10 μM, LPS) is recorded as “could inhibit”. In addition, in test [2] (setting [5]), the “TLR4-induced mRNA expression of COX-2” value is recorded as “reduced” and the “TLR4-induced mRNA expression of IL-6” value was “reduced”.

Turning to `Oc1cc2c(cc1O)C(Cc1cccc3ccccc13)NCC2` (stereo not shown) [Ys49], in test [1] (setting [6]), the “effect on ^Tat(48–60) YVEEL-induced reduction of TLR4 expression” value is “notably reversed” and the “effect on ^Tat(48–60) YVEEL-induced reduction of p-IκBα expression” value was “notably reversed”. Besides, the “effect on blockage of TLR4-mediated cytoplasm-nucleus translocation of p65 by the peptide” value in test [3] is “attenuated”. For the same compound, in test [2] (setting [6]), the “effect on protective effect of ^Tat(48–60) YVEEL on TLR4-mediated induction of pro-inflammatory cytokines (IL-6, COX-2 mRNA)” value is recorded as “reversed”. In the test on FHC cells, the “effect on protective effect of ^Tat(48–60) YVEEL on enterocyte migration” value is “attenuated”. The “effect on inhibitory effects of ^Tat(48–60) YVEEL on PI3K/AKT pathway” value in test [4] was “significantly abolished”.

The values are drawn from article PMC9590307, “Peptide ^Tat(48–60) YVEEL protects against necrotizing enterocolitis through inhibition of toll-like receptor 4-mediated signaling in a phosphatidylinositol 3-kinase/AKT dependent manner” (Frontiers in Nutrition, 2022).
